Test results as given in the NIST ThermoML archive (doi:10.1016/j.jct.2016.10.031).
Numbers after ± are expanded uncertainties.

Assay: Molar enthalpy of transition or fusion
Conditions: Crystal; Adiabatic calorimetry

CC(C)(C)c1ccc(Oc2ccc([N+](=O)[O-])cc2)cc1 [1-(tert-butyl)-4-(4-nitrophenoxy)benzene]
Molar enthalpy of transition or fusion: 4.802 ± 0.0406 kcal/mol
